Results as given in patent US20240398783A1, “Compounds and Pharmaceutical Compositions Comprising Inhibitors of Amyloid Peptide Interactions with Glycosaminoglycans, Methods of Treatment and Use Thereof” (Gismo Therapeutics, Inc., priority 2021, published 2024).
Counter-ions that a name gives are not always drawn. Like-named read-outs stand apart in the source and are kept apart here.

Assays:
Design in all cases: species or system porcine
[1] = biological target: Amyloid-beta(1-40) binding to heparin (HS-GAG) (Homo sapiens, UniProt P05067); assay: Inhibition of Amyloid-beta(1-40) binding to immobilized heparin-BSA (ELISA); conditions: for IC50: co-incubation on heparin-BSA plates; for inhibition at 30 µM: read-out: Abeta40/Heparin Activity (% inhibition class)
Protocol: (§1) Porcine intestinal mucosa heparin conjugated to Bovine Serum Albumin (Heparin-BSA) was prepared as described (Najjam, S. et al. 1997, Cytokine 12, 1013-1022). Heparin is a sulfated HS-GAG and is commonly used as a HS-GAG in biochemical and binding assays (Lindahl, U. and Kjellen, L. (2013) ibid). Heparin-BSA at 0.01 mg/ml in Phosphate Buffered Saline (PBS; pH 7.4) was added to a 96 well polystyrene ELISA plate (NUNC Cat. No. 449824; 100 μl per well) and incubated Over Night (ON) at 4 degrees Celsius. For negative controls, ELISA plates were coated with BSA instead of Heparin-BSA, using the same procedure. Following the incubation, the plate was washed consecutively, by immersion, with de-ionized water and PBS (pH 7.4). The ELISA plate was then blocked with nonfat milk (2%, 200 μl per well) for 2 hours at Room Temperature (RT) with gentle shaking. Following blocking, the plate was washed with de-ionized water then PBS (pH 7.4). GBAPs were dissolved and diluted in PBS (pH 6.5, supplemented with 0.1% BSA) at desired concentrations, added to the ELISA plates containing immobilized Heparin-BSA (100 μl per well) and incubated for 2 hours at RT with gentle shaking. Following incubation, the plate was washed with de-ionized water and three times with PBS (pH 6.5) plus Tween. Bound GBAP was detected by a monoclonal antibody specific for that GBAP, followed by incubation with secondary antibody conjugated to horseradish peroxidase (HRP). Antibody was diluted in PBS (pH 6.5 supplemented with 1% BSA). Following each incubation with antibody, the plate was washed with de-ionized water and three times with PBS (pH 6.5) wash buffer containing 0.1% Tween. The peroxidase substrate chromogen, TMB (Dako Cat. No. S1599) was added (100 μl per well) to the ELISA plate and incubated at room temperature. After 5 minutes ELISA Stop Solution (hydrochloric acid 1N, sulfuric acid 3N) was added (100 μl per well) to stop the peroxidase catalyzed colorimetric reaction. The Optical Density of the samples was measured at 450 nm using an ELISA plate reader (BioTek Synergy H1). Following color development, the % inhibition compared to control (BSA-coated plates) was determined. IC-50s were calculated using GraphPad Prism software.
(§2) The assay was performed as described in Example 43, with the following modifications. Following to coating the plates with Heparin-BSA, plates were washed as described. The compounds were dissolved in DMSO at 10 mM final concentration and further diluted prior to assay. DMSO concentration in the screening well was up to 2%. Individual compounds were co-incubated with Beta-amyloid peptides on plates containing immobilized heparin. Beta-amyloid (1-42) was purchased from rPeptide (Cat. No. A1163) and used to prepare oligomers according to Stine et al., 2003 (J Biol Chem. 278(13):11612-22) as follows. 1,1,1,3,3,3-Hexafluoro-2-propanol- (HFIP; Sigma Cat. No. 105228)-treated Beta amyloid (1-42) was dissolved in dry DMSO (Sigma Cat. No. D2650) to 5 mM concentration. Dissolved Beta amyloid (1-42) was then diluted to 100 μM in ice-cold cell culture medium (phenol red-free Ham's F-12; Caisson Labs, Cat. No. HFL05), followed immediately by vortexing for 30 seconds, and incubating at 4 degrees Celsius for 24 h. Resulting Beta amyloid (1-42) oligomers were centrifuged at 12,000 rpm for 10 min at 4 degree Celsius to remove aggregates. Oligomers were then quickly frozen and kept in aliquots at −80 degrees Celsius. Beta-amyloid (1-40) from rPeptide (Cat No. A1153) was dissolved in DMSO, quickly frozen and kept in aliquots at −80 degrees Celsius. Beta-amyloid (1-42) oligomers or Beta-amyloid (1-40) diluted in PBS (pH 6.5, supplemented with BSA, 0.1%) were added to the ELISA plate (100 μl per well) and incubated for 2 hours at RT with gentle shaking. Following the incubation, the plate was washed with de-ionized water and three times with PBS (pH 6.5) plus Tween. […]

[2] = biological target: Tau binding to heparin (HS-GAG) (Homo sapiens, UniProt P10636); assay: Inhibition of Tau binding to immobilized heparin-BSA (ELISA); conditions: for inhibition at 30 µM: read-out: Tau/Heparin Activity (% inhibition class)
Protocol: as §1
The assay was performed as described in Example 43, with the following modifications. Following to coating the plates with Heparin-BSA, plates were washed as described. The compounds were dissolved in DMSO at 10 mM final concentration and further diluted prior to assay. DMSO concentration in the screening well was up to 2%. Individual compounds were co-incubated with Tau on plates containing immobilized heparin. Tau purchased from rPeptide (Cat. No. T1001) was dissolved in DMSO (Sigma Cat. No. D2650), quickly frozen and kept in aliquots at −80 degrees Celsius. Tau dissolved in PBS (pH 6.5, supplemented with BSA, 0.1%) was added to the ELISA plate (100 μl per well) and incubated for 2 hours at RT with gentle shaking. Following the incubation, the plate was washed with de-ionized water and three times with PBS (pH 6.5) plus Tween. Bound Tau was detected by anti-Tau Monoclonal Antibody D-8 (Santa Cruz Cat. No. sc-166060), followed by secondary anti-IgG antibody conjugated to HRP (R&D System, Cat. No. HAF007). Following to color development with TMB, as described in Example 43, the Optical Density of the samples was measured at 450 nm using an ELISA plate reader. Following color development, the % inhibition compared to control (no compound, DMSO control) for every compound was determined.
An example of inhibition curve is shown in FIG. 3 for Inhibitor Compounds 3 and 6. As described in Example 43, Heparin in the form of Heparin-BSA conjugate is used as a source of HS-GAG. For each compound IC-50 value in Tau—heparin-BSA binding assay is shown in […]. In some cases IC-50 was not measured and […] at 30 μM compound concentration is shown instead. […]

[3] = biological target: T1, Amyloid-beta(1-42) oligomer binding to heparin (HS-GAG) (Homo sapiens, UniProt P05067); assay: Inhibition of Amyloid-beta(1-42) oligomer binding to immobilized heparin-BSA (ELISA); conditions: Abeta(1-42) oligomers; for IC50: co-incubation on heparin-BSA plates, read-out: Abeta42/Heparin Activity (IC-50); for inhibition at 30 µM: 30 μM compound, heparin-BSA, read-out: Abeta42/Heparin Activity (% inhibition class)
T1 construct: Beta-amyloid (1-42) was purchased from rPeptide (Cat. No. A1163); purchased rPeptide A1163
Protocol: as §1, §2

[4] = Abeta40/Heparin Activity (IC-50), Abeta(1-40)
[5] = Tau/Heparin Activity (IC-50), Tau, heparin-BSA
[6] = 30 μM compound, Tau, heparin-BSA

Amyloid-beta(1-40) binding to heparin (HS-GAG), sequence (P05067 672-711): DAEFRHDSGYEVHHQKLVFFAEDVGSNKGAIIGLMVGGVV
T1 sequence (P05067 672-713): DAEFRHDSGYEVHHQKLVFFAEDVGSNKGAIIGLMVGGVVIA
Tau binding to heparin (HS-GAG), sequence (P10636 with tags, fused parts or gaps): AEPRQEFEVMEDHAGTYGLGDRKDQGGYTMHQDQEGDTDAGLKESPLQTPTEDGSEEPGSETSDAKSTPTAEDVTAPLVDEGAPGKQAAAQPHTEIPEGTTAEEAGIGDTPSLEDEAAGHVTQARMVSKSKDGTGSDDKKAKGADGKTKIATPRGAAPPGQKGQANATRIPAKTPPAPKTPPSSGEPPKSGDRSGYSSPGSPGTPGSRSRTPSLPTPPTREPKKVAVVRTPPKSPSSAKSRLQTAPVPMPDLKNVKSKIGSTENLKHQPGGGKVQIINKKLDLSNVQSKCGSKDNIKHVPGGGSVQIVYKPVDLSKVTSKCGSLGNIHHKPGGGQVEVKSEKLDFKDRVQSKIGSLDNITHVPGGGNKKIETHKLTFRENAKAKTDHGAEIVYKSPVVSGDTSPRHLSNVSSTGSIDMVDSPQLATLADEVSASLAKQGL

| Structure (SMILES) | IC50 [1, 4] [µM] | inhibition at 30 µM [2] [%] | IC50 [3] [µM] | IC50 [2, 5] [µM] | inhibition at 30 µM [3] [%] | other results |
| --- | --- | --- | --- | --- | --- | --- |
| Clc1ccc2c(Nc3ccc(-n4cncn4)nc3)ncnc2c1 [Compound 34, N-(6-(1H-1,2,4-triazol-1-yl)pyridin-3-yl)-7-chloroquinazolin-4-amine phosphoric acid salt] | 34.8 | < 30 | 9.93 | – | – | – |
| Fc1cc(/C=N/Nc2ccnc3cc(Cl)ccc23)ccc1-n1ccnc1 [Compound 35, (E)-7-chloro-4-(2-(3-fluoro-4-(1H-imidazol-1-yl)benzylidene)hydrazineyl)quinoline hydrochloride] | – | – | 15.4 | 41.3 | – | inhibition at 30 µM [1]: < 30% |
| CC(=NNc1ccnc2cc(Cl)ccc12)c1ccc(-n2ccnc2)cc1 [Compound 36, 4-(2-(1-(4-(1H-imidazol-1-yl)phenyl)ethylidene)hydrazineyl)-7-chloroquinoline phosphate] | 13.8 | – | 14.2 | 28.5 | – | – |
| Cc1cn(-c2ccc(Nc3cncc4cc(Cl)ccc34)cn2)c(C)n1 [Compound 37, 7-chloro-N-(6-(2,4-dimethyl-1H-imidazol-1-yl)pyridin-3-yl)isoquinolin-4-amine phosphoric acid salt] | 45.6 | < 30 | – | – | < 30 | – |
| Clc1ccc2c(N/N=C/c3ccc(-n4ccnc4)cc3)ccnc2c1 [Compound 38, 4-(2-(4-(1H-imidazol-1-yl)benzylidene)hydrazineyl)-7-chloroquinoline dihydrochloride] | 1.28 | – | 2.74 | 2.94 | – | – |
| CCN1CCN(c2ccc(Nc3ccnc4cc5ccccc5cc34)cc2)CC1 [Compound 39, N-(4-(4-ethylpiperazin-1-yl)phenyl)benzo[g]quinolin-4-amine] | 20.7 | – | – | 13.2 | < 30 | – |
| Cc1ncn(-c2ncc(Nc3ncnc4cc(Cl)ccc34)cc2O)c1C [Compound 40, 5-((7-chloroquinazolin-4-yl)amino)-2-(4,5-dimethyl-1H-imidazol-1-yl)pyridin-3-ol phosphoric acid salt] | – | > 30 | 8.65 | – | – | inhibition at 30 µM [1]: < 30% |
| Clc1ccc2c(Nc3ccc(-n4ccnc4)nc3)ncnc2c1 [Compound 41, N-(6-(1H-imidazol-1-yl)pyridin-3-yl)-7-chloroquinazolin-4-amine] | – | – | 72.4 | – | – | IC50 ([1]; Abeta(1-40), read-out: Abeta40/Heparin Activity (IC-50)): 32.7 µM; IC50 ([2]; Tau, heparin-BSA, read-out: Tau/Heparin Activity (IC-50)): 14.7 µM |
| CCN(CC)Cc1cccc(Nc2ccnc3cc(Cl)ccc23)c1 [Compound 42, 7-chloro-N-(3-((diethylamino)methyl)phenyl)quinolin-4-amine] | 12.3 | – | – | – | < 30 | inhibition at 30 µM [2, 6]: < 30% |
| C[n+]1ccn(-c2ccc(Nc3ncnc4cc(Cl)ccc34)cn2)c1 [Compound 43, 1-(5-((7-chloroquinazolin-4-yl)amino)pyridin-2-yl)-3-methyl-1H-imidazol-3-ium iodide phosphoric acid salt] | – | < 30 | – | – | < 30 | inhibition at 30 µM [1]: < 30% |
| Clc1ccc2c(Nc3ccc(-n4cncn4)nc3)ccnc2c1 [Compound 44, N-(6-(1H-1,2,4-triazol-1-yl)pyridin-3-yl)-7-chloroquinolin-4-amine] | 19.3 | > 30 | 35.7 | – | – | – |
| CN(C)Cc1cc(Nc2ccnc3cc(Cl)ccc23)ccn1 [Compound 45, 7-chloro-N-(2-((dimethylamino)methyl)pyridin-4-yl)quinolin-4-amine] | – | – | – | – | < 30 | inhibition at 30 µM ([1]; 30 μM compound, Abeta(1-40), heparin-BSA): < 30%; inhibition at 30 µM [2, 6]: < 30% |
